What was measured:
EV-A71 [1] = assay: Extracellular viral RNA / virus yield in supernatant by qRT-PCR; assay type: cell-based, Enterovirus A71 (SHZH98 strain); conditions: RD cells; for Virus yield in the supernatants vs scrambled control: siRNA 48 hours, EV-A71 MOI of 10, nine hours p.i.
Description: (§1) Total RNA was extracted from cell lysis using TRIzol reagent (Ambion, Life Technologies). Quantitative Real-time PCR (qRT-PCR) was performed using SYBR Green Mix (Life Technologies) on applied Biosystems StepOne real-time PCR system. The comparative ΔΔCt method was used to calculate the relative expression of microRNA or mRNA normalized to β-actin mRNA.
(§2) The mRNA level of Hsc70 was detected by qRT-PCR and the protein level was detected by western blotting. […] The extracellular virus levels were detected by qRT-PCR. […] The viral titer in the supernatant was determined by TCID50 assay.
To address the drug target potential of Hsc70 against EV-A71, experiments were conducted to examine if Ver-155008, a chemical inhibitor of Hsc70, could protect cells from EV-A71 infection. In this regard, RD cells were pre-treated for 2 hours with Ver-155008, then infected the cells with EV-A71 for another 9 hours at an MOI of 10.
In FIG. 5A, cell images under light microscope. In FIG. 5B, proteins levels of VP0/2 by western blot are shown. In FIG. 5C, EV-A71 IRES activity detected by luciferase activities are shown. (n=3; ***, p<0.001). In FIG. 5D, there is shown the extracellular viral RNA levels were examined by qRT-PCR.

EV-A71 [2] = assay: Viral titer in supernatant by TCID50 assay; assay type: cell-based, Enterovirus A71 (SHZH98 strain); conditions: RD cells, siRNA 48 hours, EV-A71 9 hours, culture media
Description: (§3) Human rhabdomyosarcoma (RD) cells were purchased from ATCC (CCL-136). The Dulbecco's modified Eagle's medium (DMEM) with 10% fetal bovine serum (FBS) were used for cell culture, supplemented with 100 U/ml penicillin and 100 μg/ml streptomycin Propagation of EV-A71 (SHZH98 strain, accession number AF302996) was the same as previous report. The viral titer was measured by TCID50 assays.
as §2

EV-A71 viral protein VP1 = assay: Western blot of viral protein in infected RD cells; assay type: cell-based, Enterovirus A71 (SHZH98 strain)
Description: (§4) Total protein was extracted from cell lysis in RIPA buffer with protease inhibitor and phosphatase Inhibitor (Roche). A total of 10-30 μg protein was loaded for SDS-PAGE and transferred onto PVDF membranes. Membranes were blocked with 5% non-fat milk in Tris-buffered saline buffer with 0.1% Tween-20 (TBST) for 1 hour at room temperature and incubated with primary antibodies overnight at 4° C. After washing with TBST three times, the membranes were incubated with the corresponding horseradish peroxidase (HRP)-conjugated secondary antibodies for 1 hour at room temperature. The Hsc70 protein level was detected using an Hsc70-specific antibody (sc-13132, Santa Cruz Biotechnology, USA). The band density was quantified using Quantity One software (Bio-Rad). GADPH served as loading control. The western blotting was carried out in three times for confirmation of results.
The mRNA level of Hsc70 was detected by qRT-PCR and the protein level was detected by western blotting. […] The extracellular virus levels were detected by qRT-PCR. […] The viral titer in the supernatant was determined by TCID50 assay. […]
(§5) In FIG. 5A, cell images under light microscope. […] In FIG. 5C, EV-A71 IRES activity detected by luciferase activities are shown. […]

EV-A71 [3] = assay: Intracellular viral RNA (positive and negative strand) by qRT-PCR; assay type: cell-based, Enterovirus A71 (SHZH98 strain); conditions: RD cells
Description: as §1, §2

EV-A71 [4] = assay: 2Apro-regulated viral protein production in HEK 293T cells, western blot (VP0/2 antibody); assay type: cell-based, Enterovirus A71 (SHZH98 strain); conditions: si-Hsc70 then 2Apro expression plasmid, EV-A71 MOI of 5 for 9 hours
Description: as §4
In FIG. 4A, HEK 293T cells were co-transfected with pHsc70, pIRES reporter plasmid and 2A^pro-expressing plasmid or empty vector for forty-eight hours, then the reporter activity was measured. In FIG. 4B, HEK 293T cell extract was incubated with the His-tagged 2A^pro, pulled down and then analyzed by western blotting. […] The cleavage products were assessed by immunoblotting. […] The viral protein production was detected by western blotting by using VP0/2 antibody (n=3).

RD cells = assay: Cell viability assay (MTT); assay type: cell-based, Human; conditions: serial dilution of Ver-155008 for 24 hours
Description: RD cells were seeded in 96-well plates (5,000 cells/well) and treated with serial dilution of Ver-155008 for 24 hours for cell viability assay. Ten μL of MTT was added to cultured cells in 100 μl culture medium and incubated at 37° C. for 4 h. Subsequently 100 μl of Dimethyl Sulfoxide were added. The optical density was measured at a wavelength of 570 nm. The cell viability assay was carried out in triplicates by three independent experiments as previously described.

EV-A71 IRES = assay: Dual-luciferase IRES reporter assay; assay type: cell-based; conditions: Ver-155008 treatment
Excerpt: Human Hsc70 (Accession NM_006597) was purchased from Addgene (Cat. No. 19541). The EV-A71 report plasmid pIRES was constructed as previously described. In detail, the EV-A71 reportor plasmid pIRES was constructed as follows: Renilla Luciferase gene (RLuc) was inserted into pcDNA4/HisMax B between BamHI and EcoRV sites; EV-A71 IRES was amplified from EV-A71 virus strain (SHZH98). Firefly Luciferase gene (FLuc) was amplified by using primer which has overlap sequence with the C-terminal of EV-A71 IRES. Finally, the construct IRES-FLuc were then amplified by using overlap PCR, and inserted into the downstream of the Renilla Luciferase gene between EcoRV and XbarI sites. […]
HEK 293T cells were seeded into a 24-well plate and incubated at 37° C. overnight and then transfected with Hsc70 expression plasmid (pHsc70) or siRNA. […] The activity of RLuc and FLuc were assessed by bioluminometer using a dual-luciferase reporter assay (Promega) according to the manufacturer.
FIG. 3A is concerned with 293T cells were co-transfected with si-Hsc70 and IRES reporter plasmid for forty-eight hours. […] Proteins which interact with the RNAs were detected by immunoblotting with specific antibody. […]
as §5

EV-A71 [5] = assay: Cytopathic effect (CPE) assay; assay type: cell-based, Enterovirus A71 (SHZH98 strain)
Description: as §3
CPE assay was used to test the antiviral effect of Ver-155008. Ver-155008 was from Selleckchem (Cat. No. S7751). RD cells were seed in 96-well plate at 37° C. overnight, was then treated with indicated concentration of Ver-155008. […] CPE was monitored and recorded from time to time under a phase-contrast microscope. The concentration required to reduce the EV-A71-induced CPE by 50% (IC50) was determined by using the nonlinear regression analysis of SPSS 17.0. Data were shown as mean values with standard deviations from three independent assays. Selectivity index (SI) is calculated by the ratio of CC50 to IC50.

Row | Compound | Virus yield in the supernatants vs scrambled control (EV-A71 [1]) | Decrease of virus titer vs scramble siRNA control (TCID50) (EV-A71 [2]) | EV-A71 viral protein VP1 (western blot) vs control cells (EV-A71 viral protein VP1; RD cells with Hsc70 knockdown, EV-A71 MOI of 10) | Decrease of negative strand viral RNA level (EV-A71 [3]; EV-A71 MOI of 10, 3 hours p.i.) | Decrease of positive strand viral RNA level (EV-A71 [3]; EV-A71 MOI of 10, 3 hours p.i.) | Decrease of negative strand viral RNA level (EV-A71 [3]; EV-A71 MOI of 10, 6 hours p.i.) | Decrease of positive strand viral RNA level (EV-A71 [3]; EV-A71 MOI of 10, 6 hours p.i.) | Decrease of negative strand viral RNA level (EV-A71 [3]; EV-A71 MOI of 10, 9 hours p.i.) | Decrease of positive strand viral RNA level (EV-A71 [3]; EV-A71 MOI of 10, 9 hours p.i.) | Inhibitory effect on viral RNA levels (EV-A71 [3]; EV-A71 MOI of 10, 12 hours p.i.) | 2Apro-elicited production of viral protein after knockdown of Hsc70 (EV-A71 [4]) | Viral VP1 levels (western blot) (EV-A71 viral protein VP1; RD cells pre-treated 2 hours with Ver-155008, EV-A71 MOI of 10, 9 hours) | CC50 (RD cells; read-out: Cytotoxity CC50) [µM] | CC90 (RD cells; read-out: Cytotoxity CC90) [µM] | EV-A71 IRES activity (luciferase) (EV-A71 IRES) | IC50 (EV-A71 [5]; RD cells infected with EV-A71 at MOI of 0.01, read-out: Antiviral activity IC50 (concentration reducing EV-A71-induced CPE by 50%)) [µM] | Cytopathic effect (CPE) (EV-A71 [5]; RD cells, 8 μM, 2 h pre-treatment, EV-A71 MOI of 10 for 9 hours) | Selective Index SI (CC50/IC50) (EV-A71 [5]; RD cells, EV-A71) | Decrease of secreted virions (extracellular viral RNA, qRT-PCR) (EV-A71 [1]; 8 μM, EV-A71 MOI of 10, 9 hours) [%]
1 | 5′-CCUAAAUUCGUAGCAAAUU-3′ (SEQ ID NO: 2) (other siRNA strand not cited, further chemistry not given here) [si-Hsc70-2, small interfering RNA targeting human Hsc70 (NM_006597), synthesized from Genepharma] | obviously decreased |  |  |  |  |  |  |  |  |  |  |  |  |  |  |  |  |  | 
2 | 5′-UAAUUCUAAGUACAUUGAGACCAGC-3′ (SEQ ID NO: 1) (other siRNA strand not cited, further chemistry not given here) [si-Hsc70-1, small interfering RNA targeting human Hsc70 (NM_006597), synthesized from Genepharma] | obviously decreased | more than 10 times | significantly decreased | about 86% | about 86% | about 70% | about 70% | about 70% | about 70% | still significant | failed to elicit the production of viral protein |  |  |  |  |  |  |  | 
3 | N#Cc1ccc(COC[C@H]2O[C@@H](n3c(NCc4ccc(Cl)c(Cl)c4)nc4c(N)ncnc43)[C@H](O)[C@@H]2O)cc1 [Ver-155008] |  |  |  |  |  |  |  |  |  |  |  | obviously repressed by Ver-155008 in a dose dependent manner | 47.7 | 91.9 ± 0.94 | declined in a dose-dependent manner | 2.01 | nearly no obvious cytopathic effect | 23.71 | 55

Source: US11266675B2, “Methods of treatment of viral infection and uses of anti-HSC70 inhibitors” (priority 2018, dated 2022)
